# Starred links: 1 amine or outer side, 2 acyl side, 3 side chain; linkers in the order of their positions; H or OH if unused. Non-standard residues stand in square brackets, D forms with d. Residues, ends and D or L forms follow the SMILES beside them. Groups on a side chain read outwards from the residue. *: point of attachment. C20 diacid = O=C(O)CCCCCCCCCCCCCCCCCCC(=O)*; d(βAsp) = O=C(O)[C@@H](CC(=O)[*:2])N[*:1]; γGlu = O=C(O)[C@H](CCC(=O)[*:2])N[*:1]; Desaminohistidyl = O=C(CCc1c[nH]cn1)*; Trx = NC[C@H]1CC[C@H](C(=O)O)CC1; AEEA = NCCOCCOCC(=O)O; Aib = CC(C)(N)C(=O)O; Inp = O=C(O)C1CCNCC1; Bn = c1ccc(C*)cc1
# Target: human serum albumin (HSA) (Homo sapiens, UniProt P02768)
# Assay: Albumin binding affinity, competition scintillation proximity assay
# Experimental: Streptavidin-SPA beads (GE Healthcare RPNQ0009) were incubated with biotinylated HSA for 5 hours. The beads were washed with buffer to remove unbound HSA. […] After 20 hours of gentle rocking at room temperature the plates were centrifuged and counted on a TopCounter.
# Sequence of human serum albumin (HSA) (P02768 25-609): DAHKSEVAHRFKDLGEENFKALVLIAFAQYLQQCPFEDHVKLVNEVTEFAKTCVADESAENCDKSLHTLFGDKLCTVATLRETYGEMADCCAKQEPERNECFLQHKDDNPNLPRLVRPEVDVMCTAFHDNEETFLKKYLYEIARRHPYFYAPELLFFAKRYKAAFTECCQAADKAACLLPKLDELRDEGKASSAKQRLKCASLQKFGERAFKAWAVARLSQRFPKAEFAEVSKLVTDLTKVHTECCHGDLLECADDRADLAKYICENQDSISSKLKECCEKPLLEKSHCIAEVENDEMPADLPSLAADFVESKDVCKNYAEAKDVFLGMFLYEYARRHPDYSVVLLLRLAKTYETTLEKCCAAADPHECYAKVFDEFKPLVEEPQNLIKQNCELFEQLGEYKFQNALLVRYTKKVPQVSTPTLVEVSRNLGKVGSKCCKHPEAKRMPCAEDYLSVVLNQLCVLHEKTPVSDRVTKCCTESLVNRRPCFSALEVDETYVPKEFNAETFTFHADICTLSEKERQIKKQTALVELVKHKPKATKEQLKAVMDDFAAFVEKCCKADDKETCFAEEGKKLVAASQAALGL
SMILES,EC50,"EC50 at 20 h (human, biotinylated human serum albumin on streptavidin-SPA beads, pH 7.4)"
CC[C@H](C)[C@H](NC(=O)[C@H](Cc1ccccc1)NC(=O)[C@H](CCC(=O)O)NC(=O)[C@H](CCCNC(=N)N)NC(=O)[C@H](C)NC(=O)[C@H](C)NC(=O)[C@H](CCC(N)=O)NC(=O)CNC(=O)[C@H](CCC(=O)O)NC(=O)[C@H](CC(C)C)NC(=O)[C@H](Cc1ccc(O)cc1)NC(=O)[C@H](CO)NC(=O)[C@H](CO)NC(=O)[C@@H](NC(=O)[C@H](CC(=O)O)NC(=O)[C@H](CO)NC(=O)[C@@H](NC(=O)[C@H](Cc1ccccc1)NC(=O)[C@@H](NC(=O)CNC(=O)[C@H](CCC(=O)O)NC(=O)[C@H](C)NC(=O)CCc1c[nH]cn1)[C@@H](C)O)[C@@H](C)O)C(C)C)C(=O)N[C@@H](C)C(=O)N[C@@H](Cc1c[nH]c2ccccc12)C(=O)N[C@@H](CC(C)C)C(=O)N[C@H](C(=O)N[C@@H](CCCNC(=N)N)C(=O)NCC(=O)N[C@@H](CCCNC(=N)N)C(=O)N[C@@H](CCCCNC(=O)COCCOCCNC(=O)CC[C@H](NC(=O)CC[C@H](NC(=O)CCCCCCCCCCCNC(=O)CCCS(=O)(=O)NC(=O)CCCCCCCCCCCCCCCc1nnn[nH]1)C(=O)O)C(=O)O)C(N)=O)C(C)C [Example 50],0.001 to 0.1 µM,–
"CC[C@H](C)[C@H](NC(=O)[C@H](Cc1ccccc1)NC(=O)[C@H](CCC(=O)O)NC(=O)[C@H](CCCNC(=N)N)NC(=O)[C@H](C)NC(=O)[C@H](C)NC(=O)[C@H](CCC(N)=O)NC(=O)[C@H](CCC(=O)O)NC(=O)[C@H](CCC(=O)O)NC(=O)[C@H](CC(C)C)NC(=O)[C@H](Cc1ccc(O)cc1)NC(=O)[C@H](CO)NC(=O)[C@H](CO)NC(=O)[C@@H](NC(=O)[C@H](CC(=O)O)NC(=O)[C@H](CO)NC(=O)[C@@H](NC(=O)[C@H](Cc1ccccc1)NC(=O)[C@@H](NC(=O)CNC(=O)[C@H](CCC(=O)O)NC(=O)[C@H](C)NC(=O)CCc1c[nH]cn1)[C@@H](C)O)[C@@H](C)O)C(C)C)C(=O)N[C@@H](C)C(=O)N[C@@H](Cc1c[nH]c2ccccc12)C(=O)N[C@@H](CC(C)C)C(=O)N[C@H](C(=O)N[C@@H](CCCNC(=N)N)C(=O)NCC(=O)N[C@@H](CCCNC(=N)N)C(=O)NCC(=O)N[C@@H](CCCCNC(=O)COCCOCCNC(=O)COCCOCCNC(=O)CC[C@H](NC(=O)[C@H]1CC[C@H](CNC(=O)CCCCCCCCCCCCCCCCCCC(=O)O)CC1)C(=O)O)C(N)=O)C(C)C [Example 27, [DesaminoHis7,Glu22,Arg26,Arg34]GLP-1-(7-37)Lys[2-(2-{2-[2-(2-{2-[4-Carboxy-4-({trans-4-[(19-carboxy-nonadecanoylamino)methyl]cyclohexanecarbonyl}amino)butyrylamino]ethoxy}ethoxy)acetylamino]ethoxy}ethoxy)acetyl]-amide] (Desaminohistidyl-AEGTFTSDVSSYLEEQAAREFIAWLVRGRGK([AEEA-AEEA-γGlu-Trx-C20 diacid])-NH2)",–,0.8 to 2 µM
"CC[C@H](C)[C@H](NC(=O)[C@H](Cc1ccccc1)NC(=O)[C@H](CCC(=O)O)NC(=O)[C@H](CCCNC(=N)N)NC(=O)[C@H](C)NC(=O)[C@H](C)NC(=O)[C@H](CCC(N)=O)NC(=O)[C@H](CCC(=O)O)NC(=O)[C@H](CCC(=O)O)NC(=O)[C@H](CC(C)C)NC(=O)[C@H](Cc1ccc(O)cc1)NC(=O)[C@H](CO)NC(=O)[C@H](CO)NC(=O)[C@@H](NC(=O)[C@H](CC(=O)O)NC(=O)[C@H](CO)NC(=O)[C@@H](NC(=O)[C@H](Cc1ccccc1)NC(=O)[C@@H](NC(=O)CNC(=O)[C@H](CCC(=O)O)NC(=O)C(C)(C)NC(=O)[C@@H](N)Cc1c[nH]cn1)[C@@H](C)O)[C@@H](C)O)C(C)C)C(=O)N[C@@H](C)C(=O)N[C@@H](Cc1c[nH]c2ccccc12)C(=O)N[C@@H](CC(C)C)C(=O)N[C@H](C(=O)N[C@@H](CCCNC(=N)N)C(=O)NCC(=O)N[C@@H](CCCNC(=N)N)C(=O)NCC(=O)N[C@@H](CCCCNC(=O)COCCOCCNC(=O)COCCOCCNC(=O)CC[C@H](NC(=O)C1CCN(C(=O)CCCCCCCCCCCCCCCCCCC(=O)O)CC1)C(=O)O)C(N)=O)C(C)C [Example 12, [Aib8, Glu22, Arg26, Arg34]GLP-1-(7-37)Lys[2-(2-[2-(2-[2-(2-((S)-4-[1-[19-Carboxynonadecanoyl]piperidine-4-carbonylamino]-4-carboxybutyrylamino)ethoxy)ethoxy]acetylamino)ethoxy]ethoxy)acetyl]amide] (H-H[Aib]EGTFTSDVSSYLEEQAAREFIAWLVRGRGK([AEEA-AEEA-γGlu-Inp-C20 diacid])-NH2)",0.3 to 0.8 µM,–
"CC[C@H](C)[C@H](NC(=O)[C@H](Cc1ccccc1)NC(=O)[C@H](CC(C)C)NC(=O)[C@H](CCCCNC(=O)COCCOCCNC(=O)COCCOCCNC(=O)C[C@@H](NC(=O)C1CCN(C(=O)CCCCCCCCCCCCCCCCCCC(=O)O)CC1)C(=O)O)NC(=O)[C@@H](NC(=O)[C@H](C)NC(=O)[C@H](CCC(=O)O)NC(=O)[C@H](CCC(=O)O)NC(=O)[C@H](CCC(=O)O)NC(=O)[C@H](CC(C)C)NC(=O)[C@H](CCC(N)=O)NC(=O)[C@H](CCCCN)NC(=O)[C@H](CO)NC(=O)[C@H](CC(C)C)NC(=O)[C@H](CC(=O)O)NC(=O)[C@H](CO)NC(=O)[C@@H](NC(=O)[C@H](Cc1ccccc1)NC(=O)[C@@H](NC(=O)CNC(=O)[C@H](CCC(=O)O)NC(=O)C(C)(C)NC(=O)[C@@H](N)Cc1c[nH]cn1)[C@@H](C)O)[C@@H](C)O)C(C)C)C(=O)N[C@@H](CCC(=O)O)C(=O)N[C@@H](Cc1c[nH]c2ccccc12)C(=O)N[C@@H](CC(C)C)C(=O)N[C@@H](CCCCN)C(=O)N[C@@H](CCC(N)=O)C(=O)NCC(=O)NCC(=O)N1CCC[C@H]1C(=O)N[C@@H](CO)C(=O)N[C@@H](CO)C(=O)NCC(=O)N[C@@H](C)C(=O)N1CCC[C@H]1C(=O)N1CCC[C@H]1C(=O)N1CCC[C@H]1C(=O)N[C@@H](COCc1ccccc1)C(N)=O [Example 2, N-ε^20-{2-[2-(2-{2-[2-((R)-3-carboxy-3-{[1-(19-carboxynonadecanoyl)piperidine-4-carbonyl]amino}propionylamino)ethoxy]ethoxy}acetylamino)ethoxy]ethoxy}acetyl [Aib^2,Leu^14,Lys^20,Gln^28,Ser(O-benzyl)^39] exendin-4 (1-39)amide] (H-H[Aib]EGTFTSDLSKQLEEEAVK([AEEA-AEEA-d(βAsp)-Inp-C20 diacid])LFIEWLKQGGPSSGAPPPS(Bn)-NH2)",0.3 to 0.8 µM,–
"CC[C@H](C)[C@H](NC(=O)[C@H](Cc1ccccc1)NC(=O)[C@H](CCC(=O)O)NC(=O)[C@H](CCCNC(=N)N)NC(=O)[C@H](C)NC(=O)[C@H](C)NC(=O)[C@H](CCC(N)=O)NC(=O)[C@H](CCC(=O)O)NC(=O)[C@H](CCC(=O)O)NC(=O)[C@H](CC(C)C)NC(=O)[C@H](Cc1ccc(O)cc1)NC(=O)[C@H](CO)NC(=O)[C@H](CO)NC(=O)[C@@H](NC(=O)[C@H](CC(=O)O)NC(=O)[C@H](CO)NC(=O)[C@@H](NC(=O)[C@H](Cc1ccccc1)NC(=O)[C@@H](NC(=O)CNC(=O)[C@H](CCC(=O)O)NC(=O)C(C)(C)NC(=O)[C@@H](N)Cc1c[nH]cn1)[C@@H](C)O)[C@@H](C)O)C(C)C)C(=O)N[C@@H](C)C(=O)N[C@@H](Cc1c[nH]c2ccccc12)C(=O)N[C@@H](CC(C)C)C(=O)N[C@H](C(=O)N[C@@H](CCCNC(=N)N)C(=O)NCC(=O)N[C@@H](CCCNC(=N)N)C(=O)N[C@@H](CCCCNC(=O)COCCOCCNC(=O)COCCOCCNC(=O)C[C@H](NC(=O)C1CCN(C(=O)CCCCCCCCCCCCCCCCCCC(=O)O)CC1)C(=O)O)C(N)=O)C(C)C [Example 4, N-epsilon37{2-[2-(2-{2-[2-((S)-3-carboxy-3-{[1-(19-carboxynonadecanoyl)piperidine-4-carbonyl]amino}propionylamino)ethoxy]ethoxy}acetylamino)ethoxy]ethoxy}acetyl [Aib8,Glu22,Arg26,Arg34,Lys37]GLP-1-(7-37)amide]",0.3 to 0.8 µM,–
"CC[C@H](C)[C@H](NC(=O)[C@H](Cc1ccccc1)NC(=O)[C@H](CCC(=O)O)NC(=O)[C@H](CCCNC(=N)N)NC(=O)[C@H](C)NC(=O)[C@H](C)NC(=O)[C@H](CCC(N)=O)NC(=O)[C@H](CCC(=O)O)NC(=O)[C@H](CCC(=O)O)NC(=O)[C@H](CC(C)C)NC(=O)[C@H](Cc1ccc(O)cc1)NC(=O)[C@H](CO)NC(=O)[C@H](CO)NC(=O)[C@@H](NC(=O)[C@H](CC(=O)O)NC(=O)[C@H](CO)NC(=O)[C@@H](NC(=O)[C@H](Cc1ccccc1)NC(=O)[C@@H](NC(=O)CNC(=O)[C@H](CCC(=O)O)NC(=O)[C@H](C)NC(=O)CCc1c[nH]cn1)[C@@H](C)O)[C@@H](C)O)C(C)C)C(=O)N[C@@H](C)C(=O)N[C@@H](Cc1c[nH]c2ccccc12)C(=O)N[C@@H](CC(C)C)C(=O)N[C@H](C(=O)N[C@@H](CCCNC(=N)N)C(=O)NCC(=O)N[C@@H](CCCNC(=N)N)C(=O)N[C@@H](CCCCNC(=O)COCCOCCNC(=O)CC[C@H](NC(=O)CC[C@H](NC(=O)CCCCCCCCCCCNC(=O)CCCS(=O)(=O)NC(=O)CCCCCCCCCCCCCCCc1nnn(C(C)(C)C)n1)C(=O)O)C(=O)O)C(=O)O)C(C)C [Example 64, N-epsilon37-{2-[2-(2-{(S)-4-[(S)-4-(12-{4-[16-(2-tert-Butyl-2H-tetrazol-5-yl)-hexadecanoylsulfamoyl]butyrylamino}dodecanoylamino)-4-carboxybutyrylamino]-4-carboxybutyrylamino}ethoxy)ethoxy]acetyl}[DesaminoHis7,Glu22,Arg26,Arg34,Lys37] GLP-1 (7-37)]",0.001 to 0.1 µM,–

# — patent US9067977B2, “Peptides derivatized with A-B-C-D- and their therapeutical use” (Novo Nordisk A/S, priority 2007, dated 2015)
